Source: the supplement of paper PMC11061612

Experiments:
Assay in all cases: combination Emax (second highest fraction inhibited in the dose matrix, 72 h); higher = more inhibition; extreme values may be limits of the assay
769-P (Kidney Carcinoma) = test system: 769-P (Kidney Carcinoma)
Procedure, shortened: (§1)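 After 24 hours at 37°C and 5% CO2 in 1536-well plates, cells in DMEM/F12 or RPMI plus 10% FBS received two-drug dose matrices for 72 hours. Viability came from CellTiter-Glo 2.0 luminescence and was scaled as inhibition, anchored at 0 by vehicle wells and at 1 by blank wells. Combination Emax is taken as the second-highest inhibition in the matrix, and Bliss excess as the observed combination effect less EA + EB − EA·EB, with EA and EB the single-agent effects.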

[1] = test system: huH-1 (Hepatocellular Carcinoma)
Procedure, shortened: as §1

[2] = test system: KYSE-140 (Esophageal Squamous Cell Carcinoma)
Procedure, shortened: as §1

IM-9 (Non-Cancerous) = test system: IM-9 (Non-Cancerous)
Procedure, shortened: as §1

[3] = test system: JHH-2 (Hepatocellular Carcinoma)
Procedure, shortened: as §1

[4] = test system: G-402 (Other Solid Carcinomas)
Procedure, shortened: as §1

[5] = test system: CGTH-W-1 (Thyroid Gland Carcinoma)
Procedure, shortened: as §1

[6] = test system: UACC-812 (Breast Carcinoma)
Procedure, shortened: as §1

[7] = test system: NCI-H441 (Lung Adenocarcinoma)
Procedure, shortened: as §1

[8] = test system: A2780 (Ovarian Carcinoma)
Procedure, shortened: as §1

A204 (Rhabdomyosarcoma) = test system: A204 (Rhabdomyosarcoma)
Procedure, shortened: as §1

[9] = test system: SK-HEP-1 (Hepatocellular Carcinoma)
Procedure, shortened: as §1

A101D (Melanoma) = test system: A101D (Melanoma)
Procedure, shortened: as §1

[10] = test system: NCI-H1703 (Squamous Cell Lung Carcinoma)
Procedure, shortened: as §1

[11] = test system: CA46 (Burkitt's Lymphoma)
Procedure, shortened: as §1

[12] = test system: NCI-H716 (Colorectal Carcinoma)
Procedure, shortened: as §1

[13] = test system: JVM-2 (B-Cell Non-Hodgkin's Lymphoma)
Procedure, shortened: as §1

[14] = test system: KYSE-220 (Esophageal Squamous Cell Carcinoma)
Procedure, shortened: as §1

[15] = test system: OACp4C (Esophageal Adenocarcinoma)
Procedure, shortened: as §1

[16] = test system: DU-4475 (Breast Carcinoma)
Procedure, shortened: as §1

Compound	combination Emax (769-P (Kidney Carcinoma))	combination Emax [1]	combination Emax [2]	combination Emax (IM-9 (Non-Cancerous))	combination Emax [3]	combination Emax [4]	combination Emax [5]	combination Emax [6]	combination Emax [7]	combination Emax [8]	combination Emax (A204 (Rhabdomyosarcoma))	combination Emax [9]	combination Emax (A101D (Melanoma))	combination Emax [10]	combination Emax [11]	combination Emax [12]	combination Emax [13]	combination Emax [14]	combination Emax [15]	combination Emax [16]
CN(C)CCCOc1ccc(-c2ccc3ncc4c(c3c2)n(C2CCOCC2)c(=O)n4C)cn1 [AZD0156] + O=C(c1cc(Cc2n[nH]c(=O)c3ccccc23)ccc1F)N1CCN(C(=O)C2CC2)CC1 [Olaparib] (first compound max 3 µM, partner max 3 µM)	0.16	0.174	0.113	0.656	0.319	0.41	0.214	0.261	0.328	0.595	0.467	0.332	0.411	0.582	0.567	0.225	0.533	0.54	0.406	0.434
Cc1c2c(nn1C)CSCc1cc(n(C)n1)CSc1cc(c3ccccc3c1)OCCCc1c(C(=O)O)n(C)c3c-2c(Cl)ccc13 [AZD5991] + Cc1cc2ncnn2cc1Nc1ncc2c(n1)n(C1CCOCC1)c(=O)n2C [AZD7648] (first compound max 1 µM, 7x7, partner max 10 µM)	0.32	0.337	0.401	0.561	0.596	0.939	0.181	0.488	0.259	0.751	0.659	0.295	0.997	0.891	0.281	0.228	0.68	0.218	0.485	0.297
COc1cccc(OCCCN)c1-c1cc(Nc2cnc(C#N)cn2)n[nH]1 [Prexasertib] + O=C(c1cc(Cc2n[nH]c(=O)c3ccccc23)ccc1F)N1CCN(C(=O)C2CC2)CC1 [Olaparib] (first compound max 1 µM, 7x7, partner max 10 µM)	0.751	0.778	0.826	1	0.9	0.524	0.714	0.558	0.574	0.71	0.584	0.338	0.788	0.978	0.464	0.616	0.946	0.947	0.642	0.98
CC1(C)CCC(CN2CCN(c3ccc(C(=O)NS(=O)(=O)c4ccc(NCC5CCOCC5)c([N+](=O)[O-])c4)c(Oc4cnc5[nH]ccc5c4)c3)CC2)=C(c2ccc(Cl)cc2)C1 [Venetoclax] + Cc1cc2ncnn2cc1Nc1ncc2c(n1)n(C1CCOCC1)c(=O)n2C [AZD7648] (first compound max 1 µM, 7x7, partner max 10 µM)	0.171	0.162	0.398	0.655	0.506	0.501	0.259	0.22	0.264	0.628	0.408	0.219	0.451	0.465	0.132	0.203	0.528	0.145	0.338	0.23
CN(CCO)CC[C@H](CSc1ccccc1)Nc1ccc(S(=O)(=O)NC(=O)c2ccc(N3CCC([C@@H](O)c4ccccc4-c4ccc(Cl)cc4)CC3)cc2)cc1S(=O)(=O)C(F)(F)F [AZD4320] + CN(C)CCCOc1ccc(-c2ccc3ncc4c(c3c2)n(C2CCOCC2)c(=O)n4C)cn1 [AZD0156] (first compound max 1 µM, 7x7, partner max 1 µM)	0.719	0.122	0.157	0.459	0.194	0.401	0.119	0.175	0.286	0.383	0.223	0.325	0.413	0.367	0.349	0.195	0.487	0.14	0.851	0.871
CCN(CCO)CCCOc1ccc2c(Nc3cc(CC(=O)Nc4cccc(F)c4)[nH]n3)ncnc2c1 [AZD2811] + O=C(c1cc(Cc2n[nH]c(=O)c3ccccc23)ccc1F)N1CCN(C(=O)C2CC2)CC1 [Olaparib] (first compound max 1 µM, 7x7, partner max 10 µM)	0.144	0.415	0.355	0.981	0.202	0.605	0.291	0.181	0.227	0.717	0.387	0.362	0.261	0.519	0.248	0.367	0.738	0.214	0.408	0.576
CCc1c2c(nc3ccc(O)cc13)-c1cc3c(c(=O)n1C2)COC(=O)[C@]3(O)CC [SN-38] + CN(C)CCCOc1ccc(-c2ccc3ncc4c(c3c2)n(C2CCOCC2)c(=O)n4C)cn1 [AZD0156] (first compound max 0.3 µM, 7x7, partner max 1 µM)	0.716	0.762	0.305	1	0.7	0.745	0.771	0.608	0.614	0.726	0.59	0.63	0.674	0.875	0.758	0.202	0.949	0.947	0.714	0.95
C[C@@H]1COCCN1c1cc(C2([S@](C)(=N)=O)CC2)nc(-c2ccnc3[nH]ccc23)n1 [AZD6738] + O=C(c1cc(Cc2n[nH]c(=O)c3ccccc23)ccc1F)N1CCN(C(=O)C2CC2)CC1 [Olaparib] (first compound max 10 µM, 7x7, partner max 10 µM)	0.756	0.685	0.744	0.986	0.674	0.627	0.386	0.351	0.476	0.832	0.417	0.498	0.661	0.847	0.412	0.468	0.836	0.808	0.71	0.975
COc1nnc2ccc(N3CCC(c4ccc(OCCN5CCN(C)C(=O)[C@H]5C)cc4)CC3)nn12 [AZD5153] + C=CCn1c(=O)c2cnc(Nc3ccc(N4CCN(C)CC4)cc3)nc2n1-c1cccc(C(C)(C)O)n1 [AZD1775] (first compound max 1 µM, partner max 1 µM)	0.956	0.558	0.832	0.975	0.553	0.85	0.275	0.376	0.436	0.844	0.471	0.312	0.737	0.992	0.744	0.524	0.897	0.804	0.882	1
CN(C)CCCOc1ccc(-c2ccc3ncc4c(c3c2)n(C2CCOCC2)c(=O)n4C)cn1 [AZD0156] + C[C@@H]1COCCN1C2=NC(=NC(=C2)C3(CC3)[S@](=N)(=O)C)C4=C5C=CNC5=NC=C4 [AZD6738] (first compound max 1 µM, 7x7, partner max 10 µM)	0.84	0.821	0.934	0.976	0.597	0.534	0.35	0.295	0.435	0.81	0.411	0.391	0.703	0.856	0.746	0.667	0.849	0.876	0.724	0.913
Cc1c2c(nn1C)CSCc1cc(n(C)n1)CSc1cc(c3ccccc3c1)OCCCc1c(C(=O)O)n(C)c3c-2c(Cl)ccc13 [AZD5991] + C[C@@H](Nc1cc(F)cc(F)c1)c1cc(C(=O)N(C)C)cc2c(=O)cc(N3CCOCC3)oc12 [AZD8186] (first compound max 1 µM, 7x7, partner max 3 µM)	0.223	0.192	0.332	0.671	0.768	0.942	0.319	0.649	0.34	0.835	0.785	0.356	0.952	0.87	0.167	0.265	0.712	0.177	0.664	0.117
COc1cccc(OCCCN)c1-c1cc(Nc2cnc(C#N)cn2)n[nH]1 [Prexasertib] + Cc1cc2ncnn2cc1Nc1ncc2c(n1)n(C1CCOCC1)c(=O)n2C [AZD7648] (first compound max 1 µM, 7x7, partner max 10 µM)	0.819	0.762	0.953	1	0.891	0.58	0.725	0.546	0.505	0.737	0.528	0.296	0.762	0.951	0.653	0.662	0.956	0.935	0.649	0.963
Cc1c2c(nn1C)CSCc1cc(n(C)n1)CSc1cc(c3ccccc3c1)OCCCc1c(C(=O)O)n(C)c3c-2c(Cl)ccc13 [AZD5991] + CN(C)CCCOc1ccc(-c2ccc3ncc4c(c3c2)n(C2CCOCC2)c(=O)n4C)cn1 [AZD0156] (first compound max 1 µM, 7x7, partner max 1 µM)	0.243	0.24	0.488	0.608	–	0.965	0.19	0.491	0.246	0.682	0.729	0.281	1	0.892	0.294	0.294	0.753	0.278	0.469	0.244
